The values below come from PMC9741287, “Cytotoxic and Luminescent Properties of Novel Organotin Complexes with Chelating Antioxidant Ligand” (Molecules, 2022).

One may read the IC50 as the concentration that gives 50% inhibition. Higher therefore signals lower potency.

Molecules are shown by their SMILES.

For test [1], the system named is HCT116 (human colorectal carcinoma). Put plainly: MTT-test HCT116. The class given is cell-based. The method, then:
(§1) Since the investigated compounds are designed as theranostic and cytostatic agents, their toxic impact was evaluated as a standard MTT-test. Cytotoxicity was studied on four cell lines, i.e.,—HCT116 (human colorectal carcinoma), MCF-7 (human breast cancer), A549 (human lung adenocarcinoma), and WI-38 (human fetal lung fibroblast). Obtained results appear to be unorthodox: as it is known, the introduction of an organotin moiety tends to noticeably increase compounds’ toxicity and more lipophilic ones do it better, but in the presented data pattern turns vice versa (Table 3).
(§2) HCT-116 (colon carcinoma), MCF-7 (breast adenocarcinoma), A-549 (lung adenocarcinoma) cell lines, and WI-38 (cell line composed of fibroblasts) were derived from The European Collection of Authenticated Cell Cultures (ECACC, Salisbury, UK), cultured in DMEM medium (Gibco™, Dublin, Ireland) supplemented with 10% fetal bovine serum (Gibco™, Brasilia, Brazil). The cells were cultured in an incubator at 37 °C in a humidified 5% CO2 atmosphere and subcultured two times a week.
(§3) The toxicity of compounds was studied on cultured cell lines according to standard MTT protocol.
Background: Tetrazolium assays rely on reduction of a dye to a coloured formazan, in cell work by metabolically active cells.

Test [2] relates to WI-38 (human fetal lung fibroblast). Put plainly: MTT-test WI-38. The class given is cell-based. The method, then: as §1, §2, §3
Test [3] relates to MCF-7 (human breast cancer). Description: MTT-test MCF-7. In kind it is cell-based. Here is the method:
as §1, §2, §3

For test [4], the system named is A549 (human lung adenocarcinoma). Description: MTT-test A549. In kind it is cell-based. The method, then: as §1, §2, §3
The subject of test [5] is formation of advanced glycation end products (AGEs). Put plainly: Antiglycation activity (BSA-glucose, AGE fluorescence). In kind it is biochemical. The note with it: for Antiglycation activity, M ± SEM: 24 h at 60 °C. The method, then:
The glycation reaction was carried out in a phosphate buffer solution of 0.05 M, pH 7.4. Composition of the reaction medium: 0.36 M glucose solution and 1 mg/mL BSA (fraction V). The test compounds were dissolved in 99% DMSO (final concentration in the reaction medium ~3%). The activity of compound 1 was studied in the concentration range of 1000–0.1 μM, and the activity of aminoguanidine was determined at concentrations of 10,000–1000 μM. Control samples contained an equivalent volume of solvent. The samples were incubated for 24 h at 60 °C.
Data registration was carried out by the spectrofluorimetric method, determining AGE by specific fluorescence at excitation/emission wavelengths of 370/440 nm (spectrofluorimeter M 200 PRO, TECAN Austria GmbH, Grödig, Austria).
In order to exclude false positive results for compounds suppressing AGE fluorescence due to interference, the obtained data were logarithmically normalized according to Equation (4):Fly(log) = 10^(log10(Exp)−log10(Blank)) − 1(4) where Fly(log) is the normalized AGE fluorescence intensity, log10(Exp) and log10(blank) are the decimal logarithms of the actual fluorescence levels of glycated and corresponding non-glycated samples (both containing the test compound and controls).
The activity of other compounds (both non-fluorescent and fluorescent at the wavelengths used) was expressed by the Equation (5):Fly(lin) = Exp − Blank(5) where Fly(lin) is the fluorescence intensity of AGEs, Exp and blank are the actual fluorescence levels of glycated and corresponding non-glycated samples (both those containing the test compound and controls).
Determination of activity expressed as % suppression of fluorescence of AGE, was made according to the Equation (6):% = 100 − (Fly(Exp) × 100/Fly(Contr))(6) where Fly(Exp) and Fly(Contr) are the CPG fluorescence intensity of experimental and control samples, respectively (log-normalized or non-log-normalized).

As to `N.N.[Cl][Pt][Cl]` [Cisplatin, reference compound], the IC50 was found to be 8.3 ± 3.5 µM in test [1], 16.3 ± 1.9 µM in test [2], 15.5 ± 3 µM in test [3] and 10.4 ± 1.5 µM in test [4].
In the case of `N=C(N)NN` [Aminoguanidine, reference compound], the IC50 in test [5] came to 5.17 mM. For the same compound, the entries for the “Antiglycation activity, M ± SEM” value in test [5] (concentration 1000 µM), in test [5] (concentration 3000 µM) and in test [5] (concentration 10,000 µM) were 21.6 ± 1.8%, 39.5 ± 2.2% and 62.0 ± 2.0%, respectively.
